In patent US20240391881A1, “PHARMACEUTICAL USE AND PREPARATION METHOD FOR SUBSTITUTED HETEROARYL PHTHALAZINE DERIVATIVE” (ORIGIANT PHARMACEUTICAL CO., LTD., priority 2021, published 2024):

Target: T1, NLRP3 inflammasomes (Homo sapiens, UniProt Q96P20)
T1 construct: endogenous in cells; host or cells: THP-1 human monocytic cells, PMA-differentiated, LPS-primed, nigericin-stimulated
Assay: THP-1 pyroptosis test (cell pyroptosis test)
Format: cell-based
Details: THP-1 cells differentiated with PMA, LPS stimulation, 10 μM nigericin, drug 0.001-10 μM, MTT absorbance 562 nm
Description: In vitro activity screening was performed on small molecule compounds targeting inhibition on NLRP3 inflammasomes using THP-1 human monocytic cells (THP-1). THP-1 can be induced to differentiate into macrophages by phorbol ester (PMA), and the macrophages M1 can be induced to polarize by lipopolysaccharide (LPS) to release cytokines such as TNF-α, and IL-6, so as to establish a typical inflammatory model.
THP-1 cells in a logarithmic growth phase were collected to prepare a 1×10^6 cells/mL cell suspension, PMA was added to achieve a final concentration of 300 ng/mL in the cell suspension, then 1×10^5 cells were inoculated to each well of a 96-well plate, and the cells were cultured in a 37° C., 5% CO2 cell incubator for 24 hours and induced to differentiate into macrophages.
The next day, LPS was added to stimulate and induce the cells to produce an inflammatory model. […] In the 200 μL system of the 96-well plate, the final concentration of each drug was 0.001-10 μM, and the final concentration of the nigericin was 10 μM.
Cell apoptosis protection rate=[(X−C0)/(C−C0)]×100%
wherein, C, C0 and X represent average absorbance values of the normal cell group, the blank control group, and the drug treatment group, respectively. Finally, cell survival curves were fitted by Graphpad Prism 5.0 software and EC50 values of the compounds to be tested in inhibiting pyroptosis caused by NLRP3 inflammasomes were calculated.

T1 sequence (Q96P20 whole entry): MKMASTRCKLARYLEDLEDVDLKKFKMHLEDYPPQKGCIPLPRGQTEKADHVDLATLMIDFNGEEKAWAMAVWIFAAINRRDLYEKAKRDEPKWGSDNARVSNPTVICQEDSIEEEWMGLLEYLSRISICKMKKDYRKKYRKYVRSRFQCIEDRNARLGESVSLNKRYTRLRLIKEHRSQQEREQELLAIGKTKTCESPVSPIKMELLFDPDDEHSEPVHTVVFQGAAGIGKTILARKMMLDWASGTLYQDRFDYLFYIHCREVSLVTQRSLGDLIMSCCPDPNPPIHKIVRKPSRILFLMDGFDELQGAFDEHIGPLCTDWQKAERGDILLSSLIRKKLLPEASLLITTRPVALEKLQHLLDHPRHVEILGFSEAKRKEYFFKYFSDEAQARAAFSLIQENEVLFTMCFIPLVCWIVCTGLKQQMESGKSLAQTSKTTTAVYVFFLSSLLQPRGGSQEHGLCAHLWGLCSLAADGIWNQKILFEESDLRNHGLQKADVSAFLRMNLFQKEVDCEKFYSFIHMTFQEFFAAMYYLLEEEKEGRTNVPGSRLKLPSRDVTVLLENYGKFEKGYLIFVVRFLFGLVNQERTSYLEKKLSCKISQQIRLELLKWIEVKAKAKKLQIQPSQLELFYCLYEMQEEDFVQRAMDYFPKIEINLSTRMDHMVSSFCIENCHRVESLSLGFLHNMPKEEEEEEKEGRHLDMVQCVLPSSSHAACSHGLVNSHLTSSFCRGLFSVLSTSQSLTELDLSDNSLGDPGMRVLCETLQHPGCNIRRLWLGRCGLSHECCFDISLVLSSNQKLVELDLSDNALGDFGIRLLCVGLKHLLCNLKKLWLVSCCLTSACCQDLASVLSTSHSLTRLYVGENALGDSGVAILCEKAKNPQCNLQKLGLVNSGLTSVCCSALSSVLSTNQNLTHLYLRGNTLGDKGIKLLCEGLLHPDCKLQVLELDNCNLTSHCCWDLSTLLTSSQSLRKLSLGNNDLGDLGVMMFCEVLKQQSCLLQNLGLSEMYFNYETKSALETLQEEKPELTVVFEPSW

Row | SMILES | EC50 [µM]
1 | Cc1ccc2c(N[C@@H]3CCCN(C)C3)nnc(-c3ccc(C(F)(F)F)cc3O)c2n1 [Compound 53, (R)-2-(2-methyl-5-((1-methylpiperidin-3-yl)amino)pyridino[2,3-d]pyridazin-8-yl)-5-(trifluoromethyl)phenol] | 0.1 to 0.5
2 | Cc1cnc2c(N[C@@H]3CCCN(C)C3)nnc(-c3ccc(F)cc3O)c2c1 [Compound 55, (R)-5-fluoro-2-(3-methyl-8-((1-methylpiperidin-3-yl)amino)pyridino[2,3-d]pyridazn-5-yl)phenol] | < 0.02
3 | CN1C[C@H](Nc2nnc(-c3ccc(C(F)(F)F)cc3O)c3c2cnn3C)CCC1=O [Compound 66] | 0.1 to 0.5
4 | CCN1CC[C@@H](CNc2nnc(-c3ccc(C(F)(F)F)cc3O)c3c2cnn3C)C1 [Compound 71] | > 1
5 | CN1CCC(Nc2nnc(-c3ccc(C(F)(F)F)cc3O)c3ccccc23)CC1 [Compound 35, 2-(4-((1-methylpiperidin-4-yl)amino)phthalazin-1-yl)-5-(trifluoromethyl)phenol] | 0.5 to 1
6 | CCc1cnc2c(-c3ccc(C(F)(F)F)cc3O)nnc(N[C@@H]3CCCN(C)C3)c2c1 [Compound 51, (R)-2-(3-ethyl-5-((1-methylpiperidin-3-yl)amino)pyridino[2,3-d]pyridazin-8-yl)-5-(trifluoromethyl)phenol] | 0.02 to 0.1
7 | CC(C)N1CCC[C@@H](Nc2nnc(-c3ccc(C(F)(F)F)cc3O)c3c2cnn3C)C1 [Compound 87] | < 0.02
8 | CN1CCC[C@@H](Nc2nnc(-c3ccc(C(F)(F)F)cc3O)c3cc(P(C)(C)=O)ccc23)C1 [Compound 45, (R)-(4-(2-hydroxy-4-(trifluoromethyl)phenyl)-1-((1-methylpiperidin-3-yl)amino)phthalazin-6-yl)dimethylphosphine oxide] | 0.5 to 1
9 | CN1CC[C@@H](Nc2nnc(-c3ccc(C(F)(F)F)cc3O)c3c2cnn3C)C1 [Compound 72] | 0.02 to 0.1
10 | C[C@@H](Nc1nnc(-c2ccc(C(F)(F)F)cc2O)c2ccccc12)c1ccccc1 [Compound 7, (R)-2-(4-((1-phenylethyl)amino)phthalazin-1-yl)-5-(trifluoromethyl)phenol] | > 1
11 | CN1CCC[C@@H](Oc2nnc(-c3ccc(C(F)(F)F)cc3O)c3c2ncn3C)C1 [Compound 86] | > 1
12 | C[C@H](Nc1nnc(-c2ccc(C(F)(F)F)cc2O)c2ccccc12)c1ccccc1 [Compound 8, (S)-2-(4-((1-phenylethyl)amino)phthalazin-1-yl)-5-(trifluoromethyl)phenol] | > 1
13 | CN1CC(Nc2nnc(-c3ccc(C(F)(F)F)cc3O)c3cnn(C)c23)CCC1=O (centres unmarked) [Compound 67] | 0.1 to 0.5
14 | CN1CCC[C@@H](Nc2nnc(-c3ccc(C(F)(F)F)cc3O)c3cscc23)C1 [Compound 54, (R)-2-(4-((1-methylpiperidin-3-yl)amino)thieno[3,4-d]pyridazin-1-yl)-5-(trifluoromethyl)phenol] | < 0.02
